Reference: patent US6750244B2, “Compounds active at a novel site on receptor-operated calcium channels useful for treatment of neurological disorders and diseases” (NPS Pharmaceuticals, Inc., priority 1993, dated 2004)
Values joined by “and” are separate entries in the source; they are usually repeats but may differ in a detail not shown here. Identical values can stand only once. Counter-ions that a name gives are not always drawn. Like-named read-outs stand apart in the source and are kept apart here.

Experiments:
NMDA receptor = assay: Inhibition of NMDA/glycine-induced increases in intracellular calcium in cultured rat cerebellar granule cells (RCGC); format: cell-based; settings: for IC50: read-out: IC50 (μM) vs. NMDA
[1] = molecular target: NMDA receptor-ionophore complex (site labeled by [3H]MK-801); assay: Inhibition of [3H]MK-801 binding in rat cortical/hippocampal washed membrane preparations; settings: read-out: IC50 (μM) vs. [3H]MK-801
induction of LTP = test system: induction of LTP; parameters: species or system rat; settings: slices superfused 30-60 min
[2] = NMDA/glycine-induced increases in intracellular calcium, cultured rat cerebellar granule cells
[3] = rat cortical/hippocampal washed membranes

CCC(NCCC(c1ccccc1)c1ccccc1)c1ccccc1F (centres unmarked) [Compound 163] showed an IC50 (NMDA receptor; [2]) of 0.326 µM and an IC50 [1, 3] of 10.3 µM.

Work on CCC(NCCC(c1ccccc1)c1ccccc1)c1cccc(F)c1 (centres unmarked) [Compound 164] yielded an IC50 (NMDA receptor; [2]) of 0.475 µM and an IC50 [1, 3] of 18.3 µM.

CCC(NCCC(c1ccccc1)c1ccccc1)c1ccc(F)cc1 (centres unmarked) [Compound 165] showed an IC50 (NMDA receptor; [2]) of 0.337 µM and an IC50 [1, 3] of 171 µM.

In the case of CCC(NCCC(c1ccccc1)c1ccccc1)c1ccc(OC)cc1 (centres unmarked) [Compound 166], the IC50 (NMDA receptor; [2]) is reported as 0.619 µM and the IC50 [1, 3] is reported as 36.7 µM.

In the case of CCC(NCCC(c1ccccc1)c1ccccc1)c1cccc(C)c1 (centres unmarked) [Compound 168], the IC50 (NMDA receptor; [2]) is reported as 0.092 µM and the IC50 [1, 3] is reported as 17.4 µM.

CCC(NCCC(c1ccccc1)c1ccccc1)c1ccc(C)cc1 (centres unmarked) [Compound 169] showed an IC50 (NMDA receptor; [2]) of 0.298 µM and an IC50 [1, 3] of 26.7 µM.

Molecule CCC(NCCC(c1ccccc1)c1ccccc1)c1cccc([N+](=O)[O-])c1 (centres unmarked) [Compound 170] has an IC50 (NMDA receptor; [2]) of 0.238 µM and an IC50 [1, 3] of 57 µM.

Work on c1ccc(C(CCNC(c2ccccc2)C2CC2)c2ccccc2)cc1 (centres unmarked) [Compound 171] yielded an IC50 (NMDA receptor; [2]) of 0.31 µM and an IC50 [1, 3] of 39.6 µM.

Work on COc1ccc(C(=CCN)c2cccc(F)c2)cc1F [Compound 172, (E))- and (Z)-3-(3-Fluoro-4-methoxy)-3-(3-fluorophenyl)allylamine hydrochloride] yielded an IC50 (NMDA receptor; [2]) of 38 µM and an IC50 [1, 3] of 37.3 µM.

In the case of Cc1ccccc1OC(CCN)c1cccc(F)c1 (centres unmarked) [Compound 181], the IC50 (NMDA receptor; [2]) is reported as 0.081 µM and the IC50 [1, 3] is reported as 0.632 µM.

NCCC1c2ccccc2Oc2ccccc21 [Compound 182] gave an IC50 (NMDA receptor; [2]) of 2.6 µM and an IC50 [1, 3] of 7.05 µM.

Molecule NCCC1c2ccccc2Sc2ccccc21 [Compound 183] has an IC50 (NMDA receptor; [2]) of 0.676 µM and an IC50 [1, 3] of 5.01 µM.

In the case of NCCC1c2ccccc2C=Cc2ccccc21 [Compound 184], the IC50 (NMDA receptor; [2]) is reported as 1.5 µM and the IC50 [1, 3] is reported as 1.51 µM and 1.65 µM.

With NCC[C@H](Oc1cccc(F)c1)c1ccccc1 [Compound 186] the IC50 (NMDA receptor; [2]) was 0.155 µM and the IC50 [1, 3] was 0.123 µM.

With NCCC1c2ccccc2COc2ccccc21 (centres unmarked) [Compound 187, 11-(2-Aminoethyl)-11H-10,11-dihydrodibenzo[b,c]oxepine hydrochloride] the IC50 (NMDA receptor; [2]) was 1.78 µM and the IC50 ([1]; rat cortical/hippocampal washed membranes, hydrochloride) was 2.01 µM and 2.06 µM.

NCCN1c2ccccc2CCc2ccccc21 [Eli Lilly Compound, reference compound] showed an IC50 (NMDA receptor; [2]) of 0.609 µM and an IC50 [1, 3] of 1.17 µM.

Work on CNCCC=C1c2ccccc2CCc2ccccc21 [Nortriptyline, reference compound] yielded an IC50 (NMDA receptor) of 3.7 µM and an IC50 [1] of 5.67 µM.

CC(C(O)c1ccc(O)cc1)N1CCC(Cc2ccccc2)CC1 (centres unmarked) [ifenprodil, reference compound] was tested, and the “induction of LTP (p<0.05)” value (induction of LTP) was “significantly blocked”.

With CNCCCC1c2ccccc2C=Cc2ccccc21 [protriptyline, reference compound] the “% inhibition vs. NMDA” value (NMDA receptor) was 73% @ 10 μM, the IC50 (NMDA receptor; [2]) was no more than 10 µM and the IC50 [1, 3] was 21.4 µM.
